The values that follow come from US12139735B2, “Cell culture process” (Momenta Pharmaceuticals, Inc., priority 2011, dated 2024).

The structures appear in SMILES notation.

In one series the test system is CL320 CHO cells. Kind of series: Growth (VCD), viability and antibody titer of the culture with supplemented feed. It is filed as cell-based. The settings on record: addition of 10 mg/L (so in the source). The protocol: The carboxyl-terminal lysine residues of a model antibody produced by CHO cells were analyzed. […] […] On Day 5, 10 g/L cottonseed hydrolysate was added. VCD and viability were assessed, and cells were harvested on Day 10. The antibodies produced under the various conditions were evaluated for titer and C-terminal lysine by ion exchange chromatography.

For series [1], the system named is K1 and K2 lysine residues. Nature of the series: Additional culture data: levels of K1/K2 lysine residues of the antibody produced. It is filed as cell-based. The settings on record: included in culture media, compared to controls.

As to `N=C(N)NCCC[C@H](N)C(=O)O` [L-Arg, L-arginine], in the series with CL320 CHO cells, the effect on growth result is given as “did not affect”, the effect on titers result is given as “did not affect” and the effect on viability entry is reported as “did not affect”.

`NCCCC[C@H](N)C(=O)O` [L-Lys, L-lysine]: in the series on CL320 CHO cells, the effect on growth entry was “did not affect”, the effect on titers entry was “did not affect” and the effect on viability entry was “did not affect”.

Consider `Cl.N` [NH4Cl, ammonium chloride], for which, in series [1], the “levels of K1 and K2 lysine residues” value is “increased”.
